Reference: patent US20250144067A1, “PERSONALIZED STARVATION THERAPY FOR CANCER” (Faeth Therapeutics, Inc., priority 2021, published 2025)
Counter-ions that a name gives are not always drawn. Like-named read-outs stand apart in the source and are kept apart here.

Experiments:
[1] = system: NCI-H292 lung cancer cells; experiment: FDA drug screening, complete media vs cholesterol-free media without statin (TABLE 1); format: cell-based, human
[2] = system: NCI-H292 lung cancer cells; experiment: FDA drug screening, complete media vs cholesterol-free media with simvastatin (TABLE 2); format: cell-based, human
[3] = Complete minus Cholesterol-free, […]
[4] = NCI-H292 cells, cholesterol-free media without statin, FDA drug library screen
[5] = NCI-H292 cells, complete media, FDA drug library screen
[6] = NCI-H292 cells, cholesterol-free media with simvastatin 0.04 μM, FDA drug library screen (TABLE 2)
[7] = NCI-H292 cells, complete media, FDA drug library screen (TABLE 2)
[8] = complete media minus cholesterol-free media + simvastatin (0.04 μM), […]
[9] = Complete minus Cholesterol-free, >0 enhanced anti-cancer activity, about 0 neutral, <0 antagonist
[10] = NCI-H292 cells, cholesterol-free media without statin
[11] = NCI-H292 cells, FDA library drug in cholesterol-free media with simvastatin 0.04 μM
[12] = NCI-H292 cells, FDA library drug in complete media
[13] = complete media vs cholesterol-free media + simvastatin (0.04 μM), >0 enhanced anti-cancer activity, about 0 neutral, <0 antagonist
[14] = complete media minus cholesterol-free media + simvastatin (0.04 μM), >0 enhanced anti-cancer activity, about 0 neutral, <0 antagonist
[15] = complete vs cholesterol-free media, greater than 0 enhanced anti-cancer activity, about 0 neutral, below 0 antagonists
[16] = NCI-H292 cells, cholesterol-free media with simvastatin 0.04 μM, cell growth value in FDA drug screen
[17] = NCI-H292 cells, complete media, cell growth value in FDA drug screen
[18] = complete media minus cholesterol-free media + simvastatin, >0 enhanced anti-cancer activity, about 0 neutral, <0 antagonist
[19] = Complete minus Cholesterol-free, greater than 0 enhanced anti-cancer activity, about 0 neutral, below 0 antagonists
[20] = NCI-H292 cells in cholesterol-free media without statin
[21] = NCI-H292 cells in complete media
[22] = complete vs cholesterol-free media, >0 enhanced anti-cancer activity, about 0 neutral, <0 antagonist
[23] = NCI-H292 cells, FDA drug library screen, cholesterol-free media with simvastatin 0.04 μM
[24] = NCI-H292 cells, FDA drug library screen, complete media
[25] = NCI-H292 cells, drug in cholesterol-free media with simvastatin 0.04 μM
[26] = NCI-H292 cells, drug in complete media
[27] = complete media vs cholesterol-free media + simvastatin (0.04 μM), […]

CC[C@@]1(O)C[C@H](O[C@H]2C[C@H](N(C)C)[C@H](O[C@H]3C[C@H](O)[C@H](O[C@H]4CCC(=O)[C@H](C)O4)[C@H](C)O3)[C@H](C)O2)c2c(cc3c(c2O)C(=O)c2c(O)cccc2C3=O)[C@H]1C(=O)OC.Cl [Aclacinomycin A hydrochloride]
Difference [1, 3]: −0.01 | Cholesterol-free [1, 4]: 0.01335 | Complete [1, 5]: 0.007534 | Cholesterol-free media + simvastatin (0.04 μM) [2, 6]: 0.01688 | Complete Media [2, 7]: 0.01023 | Difference [2, 8]: −0.01

CCCCCCCC(=O)N[C@H](CN1CCCC1)[C@H](O)c1ccc2c(c1)OCCO2 [Eliglustat]
Difference [1, 9]: −0.30 | Cholesterol-free [1, 10]: 1.155 | Complete ([1]; NCI-H292 cells, complete media): 0.8552 | Cholesterol-free media + simvastatin (0.04 μM) [2, 11]: 1.086 | Complete Media [2, 12]: 0.6384 | Difference [2, 13]: −0.45

O=C1[C@@H]2[C@H]3CC[C@H](C3)[C@@H]2C(=O)N1CCCCN1CCN(c2ncccn2)CC1 [Tandospirone]
Difference [1, 9]: −0.26 | Cholesterol-free [1, 10]: 1.451 | Complete ([1]; NCI-H292 cells, complete media): 1.192 | Cholesterol-free media + simvastatin (0.04 μM) [2, 6]: 0.8591 | Complete Media [2, 7]: 0.8479 | Difference [2, 14]: −0.01

O=C(O)CCNC(=O)c1ccc(/N=N/c2ccc(O)c(C(=O)O)c2)cc1 [Balsalazide]
Cholesterol-free [1, 10]: 1.245 | Complete ([1]; NCI-H292 cells, complete media): 0.9198 | Difference [1, 15]: −0.33 | Cholesterol-free media + simvastatin (0.04 μM) [2, 16]: 1.228 | Complete Media [2, 17]: 1.264 | Difference [2, 18]: 0.04

Nelfinavir (Mesylate)
Difference [1, 9]: −0.02 | Cholesterol-free [1, 4]: 1.193 | Complete [1, 5]: 1.169 | Cholesterol-free media + simvastatin (0.04 μM) [2, 11]: 1.565 | Complete Media [2, 12]: 1.199 | Difference [2, 13]: −0.37

O=C(O)CCNC(=O)c1ccccc1 [Betamipron]
Difference [1, 19]: −1.00 | Cholesterol-free [1, 20]: 1.952 | Complete [1, 21]: 0.9561 | Cholesterol-free media + simvastatin (0.04 μM) [2, 16]: 0.7936 | Complete Media [2, 17]: 0.9075 | Difference [2, 18]: 0.11

CCNC(=O)CCC/C=C\C[C@@H]1[C@@H](/C=C/[C@@H](O)CCc2ccccc2)[C@H](O)C[C@@H]1O [Bimatoprost]
Cholesterol-free [1, 10]: 1.545 | Complete ([1]; NCI-H292 cells, complete media): 1.142 | Difference [1, 15]: −0.40 | Cholesterol-free media + simvastatin (0.04 μM) [2, 11]: 1.43 | Complete Media [2, 12]: 0.9569 | Difference [2, 13]: −0.47

Nc1cccc2c1CN(C1CCC(=O)NC1=O)C2=O (stereo not shown) [Lenalidomide (hemihydrate)]
Difference [1, 9]: −0.19 | Cholesterol-free [1, 10]: 1.181 | Complete ([1]; NCI-H292 cells, complete media): 0.9861 | Cholesterol-free media + simvastatin (0.04 μM) [2, 11]: 1.432 | Complete Media [2, 12]: 1.135 | Difference [2, 13]: −0.30

O=C1Cc2cc(CCN3CCN(c4nsc5ccccc45)CC3)c(Cl)cc2N1 [Ziprasidone (hydrochloride monohydrate)]
Cholesterol-free [1, 4]: 0.5848 | Complete [1, 5]: 0.8552 | Difference [1, 22]: 0.27 | Cholesterol-free media + simvastatin (0.04 μM) [2, 16]: 0.5734 | Complete Media [2, 17]: 0.6228 | Difference [2, 18]: 0.05

NC(CO)(CO)CO [Trometamol]
Cholesterol-free [1, 10]: 1.471 | Complete ([1]; NCI-H292 cells, complete media): 1.133 | Difference [1, 15]: −0.34 | Cholesterol-free media + simvastatin (0.04 μM) [2, 23]: 1.116 | Complete Media [2, 24]: 0.9694 | Difference [2, 13]: −0.15

CC1CCc2c(N3CCC(O)CC3)c(F)cc3c(=O)c(C(=O)O)cn1c23 (stereo not shown) [Nadifloxacin]
Difference [1, 9]: −0.03 | Cholesterol-free [1, 4]: 0.9891 | Complete [1, 5]: 0.9558 | Cholesterol-free media + simvastatin (0.04 μM) [2, 11]: 1.859 | Complete Media [2, 12]: 1.054 | Difference [2, 13]: −0.80

NC(=O)[C@@H]1C[C@]2(NC(=O)NC2=O)c2cc(F)ccc2O1 [Fidarestat]
Cholesterol-free [1]: 1.491 | Complete [1]: 0.686 | Difference [1]: −0.80 | Cholesterol-free media + simvastatin (0.04 μM) [2]: 1.63 | Complete Media [2]: 1.736 | Difference [2]: 0.11

Eliglustat (hemitartrate)
Difference [1, 3]: −0.24 | Cholesterol-free [1, 10]: 0.8345 | Complete ([1]; NCI-H292 cells, complete media): 0.5954 | Cholesterol-free media + simvastatin (0.04 μM) [2, 25]: 0.9268 | Complete Media [2, 26]: 0.7576 | Difference [2, 27]: −0.17

OC(CCN1CCCCC1)(c1ccccc1)C1CC2C=CC1C2 (stereo not shown) [Biperiden (Hydrochloride)]
Cholesterol-free [1, 4]: 1.12 | Complete [1, 5]: 1.311 | Difference [1, 22]: 0.19 | Cholesterol-free media + simvastatin (0.04 μM) [2, 23]: 0.8257 | Complete Media [2, 24]: 1.742 | Difference [2, 18]: 0.92

C#C[C@]1(OC(C)=O)CC[C@H]2[C@@H]3CCC4=CC(=O)CC[C@@H]4[C@H]3CC[C@@]21C [Norethindrone acetate]
Difference ([1]; Complete minus Cholesterol-free, greater than 0 enhanced anti-cancer activity, about 0 neutral, below 0 antagonist): −0.12 | Cholesterol-free ([1]; NCI-H292 cells, FDA drug library screen, cholesterol-free media without statin): 1.033 | Complete [1, 24]: 0.9116 | Cholesterol-free media + simvastatin (0.04 μM) [2, 11]: 1.695 | Complete Media [2, 12]: 0.9691 | Difference [2, 13]: −0.73

Cn1c(CCCC(=O)O)nc2cc(N(CCCl)CCCl)ccc21 [Bendamustine (hydrochloride)]
Difference [1, 3]: −0.21 | Cholesterol-free [1, 10]: 1.195 | Complete ([1]; NCI-H292 cells, complete media): 0.9866 | Cholesterol-free media + simvastatin (0.04 μM) [2, 25]: 1.142 | Complete Media [2, 26]: 0.9554 | Difference [2, 27]: −0.19

CN(C)CCOC(c1ccccc1)c1ccccc1 [Diphenhydramine (hydrochloride)]
Difference [1, 9]: −0.19 | Cholesterol-free [1, 10]: 1.083 | Complete ([1]; NCI-H292 cells, complete media): 0.8936 | Cholesterol-free media + simvastatin (0.04 μM) [2, 23]: 0.5789 | Complete Media [2, 24]: 0.7429 | Difference [2, 18]: 0.16

CSc1nc2cc(Cl)c(Oc3cccc(Cl)c3Cl)cc2[nH]1 [Triclabendazole]
Difference [1, 19]: −0.64 | Cholesterol-free [1, 20]: 1.673 | Complete [1, 21]: 1.028 | Complete Media [2, 24]: 1.193 | Difference [2, 18]: 0.25

COc1cc2nc(N3CCN(C(=O)[C@@H]4CCCO4)CC3)nc(N)c2cc1OC [(S)-Terazosin]
Difference [1, 9]: 0.01 | Cholesterol-free [1, 4]: 0.9099 | Complete [1, 5]: 0.9163 | Cholesterol-free media + simvastatin (0.04 μM) [2, 23]: 0.9768 | Complete Media [2, 24]: 0.8794 | Difference [2, 13]: −0.10

CCOC(=O)[C@H](CCc1ccccc1)N[C@@H](C)C(=O)N1[C@H](C(=O)O)C[C@@H]2CCC[C@@H]21 [Ramipril]
Difference [1, 9]: −0.24 | Cholesterol-free [1, 10]: 1.132 | Complete ([1]; NCI-H292 cells, complete media): 0.8936 | Cholesterol-free media + simvastatin (0.04 μM) [2, 6]: 1.055 | Complete Media [2, 7]: 0.9941 | Difference [2, 14]: −0.06

CC(C)C[C@H](NC(=O)CNC(=O)c1cc(Cl)ccc1Cl)B(O)O [Ixazomib]
Difference [1, 9]: −0.06 | Cholesterol-free [1, 4]: 0.05045 | Complete [1, 5]: −0.01336 | Cholesterol-free media + simvastatin (0.04 μM) [2, 6]: 0.01223 | Complete Media [2, 7]: −0.009398 | Difference [2, 14]: −0.02

C[C@@H]1O[C@@H](O[C@H]2C[C@@H](O)[C@]3(CO)[C@H]4[C@H](O)C[C@]5(C)[C@@H](C6=CC(=O)OC6)CC[C@]5(O)[C@@H]4CC[C@]3(O)C2)[C@H](O)[C@H](O)[C@H]1O.O.O.O.O.O.O.O.O [Ouabain (Octahydrate)]
Difference [1, 3]: 0.01 | Cholesterol-free [1, 4]: −0.009774 | Complete [1, 5]: −0.0006686 | Cholesterol-free media + simvastatin (0.04 μM) [2, 6]: 0.0005446 | Complete Media [2, 7]: −0.01106 | Difference [2, 8]: −0.01

COC(=O)C1=C(C)NC(C)=C(C(=O)OCCN(C)Cc2ccccc2)C1c1cccc([N+](=O)[O-])c1 (stereo not shown) [Nicardipine (hydrochloride)]
Difference [1, 9]: −0.01 | Cholesterol-free [1, 4]: 0.9198 | Complete [1, 5]: 0.9062 | Cholesterol-free media + simvastatin (0.04 μM) [2, 11]: 1.292 | Complete Media [2, 12]: 0.8256 | Difference [2, 13]: −0.47

CC(C)=CCC/C(C)=C/CC/C(C)=C/C=C/C(C)=C/C(=O)O [Peretinoin]
Difference [1, 9]: −0.19 | Cholesterol-free [1, 10]: 1.271 | Complete ([1]; NCI-H292 cells, complete media): 1.084 | Cholesterol-free media + simvastatin (0.04 μM) [2, 11]: 1.273 | Complete Media [2, 12]: 0.971 | Difference [2, 13]: −0.30

Cc1cccc(C)c1NC(=O)C(C)N (stereo not shown) [Tocainide (hydrochloride)]
Cholesterol-free [1, 10]: 1.376 | Complete ([1]; NCI-H292 cells, complete media): 0.9544 | Difference [1, 15]: −0.42 | Cholesterol-free media + simvastatin (0.04 μM) [2, 25]: 1.258 | Complete Media [2, 26]: 1.006 | Difference [2, 13]: −0.25

Br.CCN1C[C@]2(OC(=O)c3ccccc3NC(C)=O)CC[C@H](OC)[C@@]34[C@@H]2C[C@@H]([C@@H]13)[C@@]1(O)C[C@H](OC)[C@H]2C[C@@H]4[C@]1(O)[C@H]2OC [Lappaconitine (hydrobromide)]
Difference [1, 3]: −0.05 | Cholesterol-free [1, 4]: 1.017 | Complete [1, 5]: 0.9704 | Cholesterol-free media + simvastatin (0.04 μM) [2, 23]: 1.123 | Complete Media [2, 24]: 1.322 | Difference ([2]; complete media minus cholesterol-free media + simvastatin, […]): 0.20

Nc1c(CC(=O)O)cccc1C(=O)c1ccc(Br)cc1 [Bromfenac (sodium)]
Cholesterol-free [1, 10]: 1.333 | Complete ([1]; NCI-H292 cells, complete media): 0.9935 | Difference [1, 15]: −0.34 | Complete Media [2, 12]: 1.029 | Difference [2, 13]: −0.59
